Reference: patent publication US10376499B2, “Combination therapy for treatment of resistant bacterial infections” (priority 2014, dated 2019)
Counter-ions that a name gives are not always drawn. Like-named read-outs stand apart in the source and are kept apart here.

Experiments:
Enterobacter cloacae = assay: MIC, recent Enterobacteriaceae clinical isolates: Enterobacter cloacae (Examples 7, 11); type: cell-based
Citrobacter spp = assay: MIC, recent Enterobacteriaceae clinical isolates: Citrobacter spp (Examples 7, 11); type: cell-based; details: for MIC: read-out: MIC
Enterobacteriaceae = assay: organism not typed; type: cell-based
A. baumannii [1] = assay: MIC, 20 diverse recent strains of A. baumannii (Example 10); type: cell-based, Acinetobacter baumannii; details: N 20 A. baumannii strains
A. baumannii [2] = assay: Neutropenic mouse thigh and lung infection models; details: neutropenic CD-1 mice, subcutaneous q3h, sulbactam+compound 1 at 4:1 ratio, 24 h, isolate containing AmpC, OXA-66, OXA-72, TEM-1, FIG. 4
Escherichia coli = assay: MIC, recent Enterobacteriaceae clinical isolates: Escherichia coli (Examples 7, 11); details: Escherichia coli
Klebsiella pneumoniae = assay: MIC, recent Enterobacteriaceae clinical isolates: Klebsiella pneumoniae (Examples 7, 11)

CC1=C[C@@H]2CN(C(=O)N2OS(=O)(=O)O)[C@@H]1C(N)=O [Compound 1, (2S,5R)-2-carbamoyl-3-methyl-7-oxo-1,6-diazabicyclo[3.2.1]oct-3-en-6-yl hydrogen sulfate]
MIC (Enterobacter cloacae; Enterobacter cloacae ARC4438, AmpC+, read-out: MIC): 2 µg/mL | MIC (Enterobacter cloacae; Enterobacter cloacae ARC4439, AmpC+, LAP-2+, read-out: MIC): 0.5 µg/mL | MIC (Enterobacter cloacae; Enterobacter cloacae ARC4444, AmpC+, MIR-8[I175L]): 4 µg/mL | MIC (Enterobacter cloacae; Enterobacter cloacae ARC4458, AmpC+, ACT-2[V312M]): 8 µg/mL | MIC (Enterobacter cloacae; Enterobacter cloacae ARC4461, AmpC+, TEM-1, read-out: MIC): 0.25 µg/mL | MIC (Enterobacter cloacae; Enterobacter cloacae ARC4462, AmpC+, read-out: MIC): 0.5 µg/mL | MIC (Enterobacter cloacae; Enterobacter cloacae ARC4473, SHV-5+, AmpC+, DHA-1+, TEM-1+, read-out: MIC): 0.5 µg/mL | MIC (Enterobacter cloacae; Enterobacter cloacae ARC4489, AmpC+, read-out: MIC): 1 µg/mL | MIC (Enterobacter cloacae; Enterobacter cloacae ARC4492, AmpC+, read-out: MIC): 0.5 µg/mL | MIC (Enterobacter cloacae; Enterobacter cloacae ARC4494, OXA-1+, DHA-1+, AmpC+, read-out: MIC): 0.25 µg/mL | MIC90 (Enterobacter cloacae; N 10): 4 µg/mL | MIC range (Enterobacter cloacae; N 10): 0.25 to 8 µg/mL | MIC50 (Enterobacter cloacae; N 10, read-out: MIC50): 0.5 µg/mL | MIC (Citrobacter spp; Citrobacter braakii ARC3660, CTX-M-15): 0.25 µg/mL | MIC (Citrobacter spp; Citrobacter freundii ARC3522, AmpC, TEM-1, CMY65): 0.5 µg/mL | MIC (Citrobacter spp; Citrobacter freundii ARC3883, KPC-2): 32 µg/mL | MIC (Citrobacter spp; Citrobacter freundii ARC3884, KPC-2): 4 µg/mL | MIC (Citrobacter spp; Citrobacter freundii ARC3885, AmpH, TEM-1, SHV-5, CMY-6, CMY-13): 4 µg/mL | MIC (Citrobacter spp; Citrobacter koseri ARC2001, ESBL): 0.5 µg/mL | MIC (Citrobacter spp; Citrobacter koseri ARC2002, ESBL): 0.5 µg/mL | MIC range (Citrobacter spp; Citrobacter spp, N 7): 0.25 to 4 µg/mL | MIC50 (Citrobacter spp; Citrobacter spp, N 7, read-out: MIC50): 0.5 µg/mL | MIC90 (Citrobacter spp; Citrobacter spp, N 7, read-out: MIC90): 4 µg/mL | MIC50 (Enterobacteriaceae): 0.5 µg/mL | MIC90 (Enterobacteriaceae): 4 µg/mL | MIC range (Enterobacteriaceae; Total Enterobacteriaceae, N 59): 0.125 to 32 µg/mL | MIC50 (A. baumannii [1]): 64 µg/mL | MIC90 (A. baumannii [1]): > 64 µg/mL | MIC Max (A. baumannii [1]): > 64 µg/mL | MIC Min (A. baumannii [1]): 16 µg/mL | efficacy (mean delta log CFU) (A. baumannii [2]): recover the activity | MIC (Escherichia coli): 0.125 µg/mL | MIC50 (Escherichia coli): 0.5 µg/mL | MIC90 (Escherichia coli): 4 µg/mL | MIC (Escherichia coli; ATCC25922, Escherichia coli ARC4, none (ATCC 25922) CLSI control): 8 µg/mL | MIC (Escherichia coli; Escherichia coli ARC4416, CTX-M-14+, TEM-1+): 0.5 µg/mL | MIC (Escherichia coli; Escherichia coli ARC4418, CTX-M-14+, CMY-2+): 0.25 µg/mL | MIC (Escherichia coli; Escherichia coli ARC4419, SHV-12+): 0.25 µg/mL | MIC (Escherichia coli; Escherichia coli ARC4421, CTX-M-55, TEM-1+, CMY-2+): 0.25 µg/mL | MIC (Escherichia coli; Escherichia coli ARC4429, TEM-1+, CMY-2+): 0.25 µg/mL | MIC (Escherichia coli; Escherichia coli ARC4432, CTX-M-14+, TEM-1+, CMY-2+): 0.25 µg/mL | MIC (Escherichia coli; Escherichia coli ARC4436, CTX-M-14+, TEM-1+): 0.25 µg/mL | MIC (Escherichia coli; Escherichia coli ARC4449, CMY-2+, TEM-1+): 0.5 µg/mL | MIC (Escherichia coli; Escherichia coli ARC4450, TEM-1+, OXA-1+, CMY-2+): 2 µg/mL | MIC (Escherichia coli; Escherichia coli ARC4452, SHV-12+): 0.25 µg/mL | MIC (Escherichia coli; Escherichia coli ARC4455, SHV-12+): 0.25 µg/mL | MIC (Escherichia coli; Escherichia coli ARC4465, CMY-2+): 0.25 µg/mL | MIC (Escherichia coli; Escherichia coli ARC4471, CMY-2+, OXA-1+, TEM-1+): 4 µg/mL | MIC (Escherichia coli; Escherichia coli ARC4472, CMY-2+, TEM-1+): 2 µg/mL | MIC (Escherichia coli; Escherichia coli ARC4477, CTX-M-15+, TEM-1+): 2 µg/mL | MIC (Escherichia coli; Escherichia coli ARC4478, CTX-M-15+, CMY-2+): 0.5 µg/mL | MIC (Escherichia coli; Escherichia coli ARC4479, CMY-42+, OXA-1+, OXA-9+, TEM-1+): 32 µg/mL | MIC (Escherichia coli; Escherichia coli ARC4485, CMY-2+, OXA-1+, CTX-M-15+): 0.5 µg/mL | MIC (Escherichia coli; Escherichia coli ARC4487, SHV-5+, DHA-1+, TEM-1+, OXA-1+, CMY-2+): 4 µg/mL | MIC50 (Klebsiella pneumoniae): 1 µg/mL | MIC90 (Klebsiella pneumoniae): 4 µg/mL | MIC (Klebsiella pneumoniae; Klebsiella pneumoniae ARC4414, SHV-11): 2 µg/mL | MIC (Klebsiella pneumoniae; Klebsiella pneumoniae ARC4420, SHV-11, SHV-12, DHA-1, OXA-1): 1 µg/mL | MIC (Klebsiella pneumoniae; Klebsiella pneumoniae ARC4427, SHV-1, OXA-1): 0.25 µg/mL | MIC (Klebsiella pneumoniae; Klebsiella pneumoniae ARC4434, SHV-11): 2 µg/mL | MIC (Klebsiella pneumoniae; Klebsiella pneumoniae ARC4435, SHV-157): 0.25 µg/mL | MIC (Klebsiella pneumoniae; Klebsiella pneumoniae ARC4446, SHV-11): 2 µg/mL | MIC (Klebsiella pneumoniae; Klebsiella pneumoniae ARC4451, SHV-11, KPC-3): 0.5 µg/mL | MIC (Klebsiella pneumoniae; Klebsiella pneumoniae ARC4457, SHV-11, DHA-1): 0.5 µg/mL | MIC (Klebsiella pneumoniae; Klebsiella pneumoniae ARC4460, SHV-11, CTX-M15, OXA-1, NDM-1): 4 µg/mL | MIC (Klebsiella pneumoniae; Klebsiella pneumoniae ARC4467, SHV-33, TEM-1, OXA-1, DHA-1): 4 µg/mL | MIC (Klebsiella pneumoniae; Klebsiella pneumoniae ARC4468, SHV-1): 8 µg/mL | MIC (Klebsiella pneumoniae; Klebsiella pneumoniae ARC4476, SHV-11, KPC-2, OXA-9[W117*]): 4 µg/mL | MIC (Klebsiella pneumoniae; Klebsiella pneumoniae ARC4480, SHV-27): 0.5 µg/mL | MIC (Klebsiella pneumoniae; Klebsiella pneumoniae ARC4483, SHV-11): 1 µg/mL | MIC (Klebsiella pneumoniae; Klebsiella pneumoniae ARC4484, SHV-168): 1 µg/mL | MIC (Klebsiella pneumoniae; Klebsiella pneumoniae ARC4488, SHV-11, CTX-M15, OXA-1, TEM-1): 0.25 µg/mL | MIC (Klebsiella pneumoniae; Klebsiella pneumoniae ARC4490, SHV-11, CTX-M15, KPC-2, OXA-1): 0.5 µg/mL | MIC (Klebsiella pneumoniae; Klebsiella pneumoniae ARC4495, SHV-60, LAP-2): 4 µg/mL
